Measured values reported in ChEMBL document CHEMBL4673372, “1,2,3-triazole-thiazole hybrids: Synthesis, in vitro antimicrobial activity and antibiofilm studies” (Bioorg Med Chem Lett, 2021).
In brackets after ≈: the same amount, converted by molar mass.

System: Candida albicans
Experiment: Inhibition of biofilm formation in Candida albicans MTCC 3017 incubated for 24 hrs by crystal violet staining based microtiter plate method
Type: functional, organism-based
Conditions: not given; call rule not given here

| SMILES | IC50 |
| --- | --- |
| COc1ccc(-n2cc(COc3ccc(/C=N/Nc4nc(-c5cc6cc(Cl)cc(Cl)c6oc5=O)cs4)cc3)nn2)cc1 | Not Active |
| COc1ccc(-n2cc(COc3ccc(/C=N/Nc4nc(-c5cc6cc(Br)cc(Br)c6oc5=O)cs4)cc3)nn2)cc1 | Not Active |

System: Pseudomonas aeruginosa
Experiment: Inhibition of biofilm formation in Pseudomonas aeruginosa MTCC 2453 incubated for 24 hrs by crystal violet staining based microtiter plate method
Type: functional, organism-based
Conditions: not given

| SMILES | IC50 |
| --- | --- |
| COc1ccc(-n2cc(COc3ccc(/C=N/Nc4nc(-c5cc6cc(Cl)cc(Cl)c6oc5=O)cs4)cc3)nn2)cc1 | Not Active |

Same assay, conditions: Pseudomonas aeruginosa, MTCC 2453, 24 h; read-out: IC50

| SMILES | IC50 |
| --- | --- |
| COc1ccc(-n2cc(COc3ccc(/C=N/Nc4nc(-c5cc6cc(Br)cc(Br)c6oc5=O)cs4)cc3)nn2)cc1 | 110 µM |

System: Escherichia coli
Experiment: Inhibition of biofilm formation in Escherichia coli MTCC 739 incubated for 24 hrs by crystal violet staining based microtiter plate method
Type: functional, organism-based
Conditions: not given

| SMILES | IC50 |
| --- | --- |
| COc1ccc(-n2cc(COc3ccc(/C=N/Nc4nc(-c5cc6cc(Cl)cc(Cl)c6oc5=O)cs4)cc3)nn2)cc1 | Not Active |
| COc1ccc(-n2cc(COc3ccc(/C=N/Nc4nc(-c5cc6cc(Br)cc(Br)c6oc5=O)cs4)cc3)nn2)cc1 | Not Active |

System: Raoultella planticola
Experiment: Inhibition of biofilm formation in Klebsiella planticola MTCC 530 incubated for 24 hrs by crystal violet staining based microtiter plate method
Type: functional, organism-based
Conditions: not given

| SMILES | IC50 |
| --- | --- |
| COc1ccc(-n2cc(COc3ccc(/C=N/Nc4nc(-c5cc6cc(Cl)cc(Cl)c6oc5=O)cs4)cc3)nn2)cc1 | Not Active |
| COc1ccc(-n2cc(COc3ccc(/C=N/Nc4nc(-c5cc6cc(Br)cc(Br)c6oc5=O)cs4)cc3)nn2)cc1 | Not Active |

System: Micrococcus luteus
Experiment: Inhibition of biofilm formation in Micrococcus luteus MTCC 2470 incubated for 24 hrs by crystal violet staining based microtiter plate method
Type: functional, organism-based
Conditions: not given

| SMILES | IC50 |
| --- | --- |
| COc1ccc(-n2cc(COc3ccc(/C=N/Nc4nc(-c5cc6cc(Cl)cc(Cl)c6oc5=O)cs4)cc3)nn2)cc1 | Not Active |

Same assay, conditions: Micrococcus luteus, MTCC 2470, 24 h; read-out: IC50

| SMILES | IC50 |
| --- | --- |
| COc1ccc(-n2cc(COc3ccc(/C=N/Nc4nc(-c5cc6cc(Br)cc(Br)c6oc5=O)cs4)cc3)nn2)cc1 | 45.1 µM |

System: Bacillus subtilis
Experiment: Inhibition of biofilm formation in Bacillus subtilis MTCC 121 incubated for 24 hrs by crystal violet staining based microtiter plate method
Type: functional, organism-based
Conditions: not given

| SMILES | IC50 |
| --- | --- |
| COc1ccc(-n2cc(COc3ccc(/C=N/Nc4nc(-c5cc6cc(Cl)cc(Cl)c6oc5=O)cs4)cc3)nn2)cc1 | Not Active |

Same assay, conditions: Bacillus subtilis, MTCC 121, 24 h; read-out: IC50

| SMILES | IC50 |
| --- | --- |
| COc1ccc(-n2cc(COc3ccc(/C=N/Nc4nc(-c5cc6cc(Br)cc(Br)c6oc5=O)cs4)cc3)nn2)cc1 | 42.6 µM |

System: Staphylococcus aureus
Experiment: Inhibition of biofilm formation in Staphylococcus aureus MLS16 MTCC 2940 incubated for 24 hrs by crystal violet staining based microtiter plate method
Type: functional, organism-based
Conditions: not given

| SMILES | IC50 |
| --- | --- |
| COc1ccc(-n2cc(COc3ccc(/C=N/Nc4nc(-c5cc6cc(Cl)cc(Cl)c6oc5=O)cs4)cc3)nn2)cc1 | Not Active |
| COc1ccc(-n2cc(COc3ccc(/C=N/Nc4nc(-c5cc6cc(Br)cc(Br)c6oc5=O)cs4)cc3)nn2)cc1 | Not Active |

System: Staphylococcus aureus
Experiment: Inhibition of biofilm formation in Staphylococcus aureus […] incubated for 24 hrs by crystal violet staining based microtiter plate method
Type: functional, organism-based
Conditions: not given

| SMILES | IC50 |
| --- | --- |
| COc1ccc(-n2cc(COc3ccc(/C=N/Nc4nc(-c5cc6cc(Cl)cc(Cl)c6oc5=O)cs4)cc3)nn2)cc1 | Not Active |
| COc1ccc(-n2cc(COc3ccc(/C=N/Nc4nc(-c5cc6cc(Br)cc(Br)c6oc5=O)cs4)cc3)nn2)cc1 | Not Active |

System: Escherichia coli
Experiment: Bactericidal activity against Escherichia coli MTCC 739
Type: functional
Conditions: not given

| SMILES | MBC |
| --- | --- |
| COc1ccc(-n2cc(COc3ccc(/C=N/Nc4nc(-c5cc6cc(Br)cc(Br)c6oc5=O)cs4)cc3)nn2)cc1 | 11 µM (≈ 7.79 µg/mL) |

System: Micrococcus luteus
Experiment: Bactericidal activity against Micrococcus luteus MTCC 2470
Type: functional
Conditions: not given

| SMILES | MBC |
| --- | --- |
| COc1ccc(-n2cc(COc3ccc(/C=N/Nc4nc(-c5cc6cc(Br)cc(Br)c6oc5=O)cs4)cc3)nn2)cc1 | 11 µM (≈ 7.79 µg/mL) |

System: Bacillus subtilis
Experiment: Bactericidal activity against Bacillus subtilis MTCC 121
Type: functional
Conditions: not given

| SMILES | MBC |
| --- | --- |
| COc1ccc(-n2cc(COc3ccc(/C=N/Nc4nc(-c5cc6cc(Br)cc(Br)c6oc5=O)cs4)cc3)nn2)cc1 | 11 µM (≈ 7.79 µg/mL) |

System: Pseudomonas aeruginosa
Experiment: Antibacterial activity against Pseudomonas aeruginosa MTCC 2453 assessed as inhibition of bacterial growth by microtiter broth dilution method
Type: functional
Conditions: not given

| SMILES | MIC |
| --- | --- |
| COc1ccc(-n2cc(COc3ccc(/C=N/Nc4nc(-c5ccccc5)cs4)cc3)nn2)cc1 | > 259 µM |
| COc1ccc(-n2cc(COc3ccc(/C=N/Nc4nc(-c5cc6cc(Cl)cc(Cl)c6oc5=O)cs4)cc3)nn2)cc1 | > 202 µM |
| COc1ccc(-n2cc(COc3ccc(/C=N/Nc4nc(-c5ccc(F)cc5)cs4)cc3)nn2)cc1 | > 223 µM |
| COc1ccc(-n2cc(COc3ccc(/C=N/Nc4nc(-c5cc6cc(Br)cc(Br)c6oc5=O)cs4)cc3)nn2)cc1 | > 176 µM |

System: Escherichia coli
Experiment: Antibacterial activity against Escherichia coli MTCC 739 assessed as inhibition of bacterial growth by microtiter broth dilution method
Type: functional
Conditions: not given

| SMILES | MIC |
| --- | --- |
| COc1ccc(-n2cc(COc3ccc(/C=N/Nc4nc(-c5ccccc5)cs4)cc3)nn2)cc1 | > 259 µM |
| COc1ccc(-n2cc(COc3ccc(/C=N/Nc4nc(-c5cc6cc(Cl)cc(Cl)c6oc5=O)cs4)cc3)nn2)cc1 | > 202 µM |
| COc1ccc(-n2cc(COc3ccc(/C=N/Nc4nc(-c5ccc(F)cc5)cs4)cc3)nn2)cc1 | > 223 µM |
| COc1ccc(-n2cc(COc3ccc(/C=N/Nc4nc(-c5cc6cc(Br)cc(Br)c6oc5=O)cs4)cc3)nn2)cc1 | 5.5 µM (≈ 3.9 µg/mL) |

System: Raoultella planticola
Experiment: Antibacterial activity against Klebsiella planticola MTCC 530 assessed as inhibition of bacterial growth by microtiter broth dilution method
Type: functional
Conditions: not given

| SMILES | MIC |
| --- | --- |
| COc1ccc(-n2cc(COc3ccc(/C=N/Nc4nc(-c5ccccc5)cs4)cc3)nn2)cc1 | > 259 µM |
| COc1ccc(-n2cc(COc3ccc(/C=N/Nc4nc(-c5cc6cc(Cl)cc(Cl)c6oc5=O)cs4)cc3)nn2)cc1 | > 202 µM |
| COc1ccc(-n2cc(COc3ccc(/C=N/Nc4nc(-c5ccc(F)cc5)cs4)cc3)nn2)cc1 | > 223 µM |
| COc1ccc(-n2cc(COc3ccc(/C=N/Nc4nc(-c5cc6cc(Br)cc(Br)c6oc5=O)cs4)cc3)nn2)cc1 | > 176 µM |

System: Micrococcus luteus
Experiment: Antibacterial activity against Micrococcus luteus MTCC 2470 assessed as inhibition of bacterial growth by microtiter broth dilution method
Type: functional
Conditions: not given

| SMILES | MIC |
| --- | --- |
| COc1ccc(-n2cc(COc3ccc(/C=N/Nc4nc(-c5ccccc5)cs4)cc3)nn2)cc1 | > 259 µM |
| COc1ccc(-n2cc(COc3ccc(/C=N/Nc4nc(-c5cc6cc(Cl)cc(Cl)c6oc5=O)cs4)cc3)nn2)cc1 | > 202 µM |
| COc1ccc(-n2cc(COc3ccc(/C=N/Nc4nc(-c5ccc(F)cc5)cs4)cc3)nn2)cc1 | > 223 µM |
| COc1ccc(-n2cc(COc3ccc(/C=N/Nc4nc(-c5cc6cc(Br)cc(Br)c6oc5=O)cs4)cc3)nn2)cc1 | 5.5 µM (≈ 3.9 µg/mL) |

System: Bacillus subtilis
Experiment: Antibacterial activity against Bacillus subtilis MTCC 121 assessed as inhibition of bacterial growth by microtiter broth dilution method
Type: functional
Conditions: not given

| SMILES | MIC |
| --- | --- |
| COc1ccc(-n2cc(COc3ccc(/C=N/Nc4nc(-c5ccccc5)cs4)cc3)nn2)cc1 | > 259 µM |
| COc1ccc(-n2cc(COc3ccc(/C=N/Nc4nc(-c5cc6cc(Cl)cc(Cl)c6oc5=O)cs4)cc3)nn2)cc1 | > 202 µM |
| COc1ccc(-n2cc(COc3ccc(/C=N/Nc4nc(-c5ccc(F)cc5)cs4)cc3)nn2)cc1 | > 223 µM |
| COc1ccc(-n2cc(COc3ccc(/C=N/Nc4nc(-c5cc6cc(Br)cc(Br)c6oc5=O)cs4)cc3)nn2)cc1 | 5.5 µM (≈ 3.9 µg/mL) |

System: Staphylococcus aureus
Experiment: Antibacterial activity against Staphylococcus aureus MLS16 MTCC 2940 assessed as inhibition of bacterial growth by microtiter broth dilution method
Type: functional
Conditions: not given

| SMILES | MIC |
| --- | --- |
| COc1ccc(-n2cc(COc3ccc(/C=N/Nc4nc(-c5ccccc5)cs4)cc3)nn2)cc1 | > 259 µM |
| COc1ccc(-n2cc(COc3ccc(/C=N/Nc4nc(-c5cc6cc(Cl)cc(Cl)c6oc5=O)cs4)cc3)nn2)cc1 | > 202 µM |
| COc1ccc(-n2cc(COc3ccc(/C=N/Nc4nc(-c5ccc(F)cc5)cs4)cc3)nn2)cc1 | > 223 µM |
| COc1ccc(-n2cc(COc3ccc(/C=N/Nc4nc(-c5cc6cc(Br)cc(Br)c6oc5=O)cs4)cc3)nn2)cc1 | > 176 µM |

System: Staphylococcus aureus
Experiment: Antibacterial activity against Staphylococcus aureus MTCC 96 assessed as inhibition of bacterial growth by microtiter broth dilution method
Type: functional
Conditions: not given

| SMILES | MIC |
| --- | --- |
| COc1ccc(-n2cc(COc3ccc(/C=N/Nc4nc(-c5ccccc5)cs4)cc3)nn2)cc1 | > 259 µM |
| COc1ccc(-n2cc(COc3ccc(/C=N/Nc4nc(-c5cc6cc(Cl)cc(Cl)c6oc5=O)cs4)cc3)nn2)cc1 | > 202 µM |
| COc1ccc(-n2cc(COc3ccc(/C=N/Nc4nc(-c5ccc(F)cc5)cs4)cc3)nn2)cc1 | > 223 µM |
| COc1ccc(-n2cc(COc3ccc(/C=N/Nc4nc(-c5cc6cc(Br)cc(Br)c6oc5=O)cs4)cc3)nn2)cc1 | > 176 µM |
